Assay results: US6867186B2, “Cell-permeable protein inhibitors of calpain” (New England Medical Center Hospital, priority 1997, dated 2005)
pIC50: −log10 of the molar value. “Also recorded” adds a separate entry of the source. Like-named read-outs stand apart in the source and are kept apart here.

What was measured:
platelets [1] = assay: cells; set-up: increase in P-selectin surface expression over unstimulated: dose or concentration left out as unconfirmed
Description: To determine whether S-TIPPEYIN could inhibit α-granule secretion in platelets, surface expression of P-selectin, which indicates α-granule secretion, was induced with the thrombin peptide SFLLR (SEQ ID NO:5) and analyzed by flow cytometry using an antibody against P-selectin. Blood from healthy volunteers was collected into sodium citrate (4% w/v) and centrifuged at 200×g for 10 minutes to prepare platelet-rich plasma (PRP), from which platelets were subsequently purified by gel filtration using a SEPHAROSE 2B column in PIPES buffer. Twenty μl of platelets (approximately 2×10^8 platelets/ml) were aliquoted into eppendorf tubes and one μl of S-TIPPEYIN, TIPPEYIN (lacking the signal peptide sequence), or S-TIPPEY-ala was added to achieve final concentrations of 6.25, 12.5, 25, 50, or 100 μM. The platelets were then incubated for 2 hours at 37° C. and subsequently exposed to either 1 μl PBS (unstimulated) or 1 μl of SFLLR (SEQ ID NO:5; stimulated) at the indicated concentration. After 30 seconds, a 7.5 μl aliquot was transferred to an eppendorf tube containing non-immune serum having antibodies that were conjugated to phycoerythrin. Following a 20 minute incubation at room temperature, the mixture was diluted with 1 ml of 2% paraformaldehyde and incubated at 4° C. for two hours. Antibody binding to platelet surface P-selectin was quantified using a FACSCAN flow cytometer (Becton Dickerson, San Jose, Calif.). Results were reported as the geometric mean of the relative fluorescence.
Platelets were pre-incubated with increasing concentrations of calpeptin, MDL, E64d, or DMSO (vehicle control) for ten minutes prior to stimulation with SFLLR.

μ-calpain = target: T1, μ-calpain (Sus scrofa, UniProt P35750); assay: Fluorometric calpain assay, suc-LLVY-AMC substrate; format: biochemical, porcine
T1 construct: pure p-calpain (porcine erythrocyte) was obtained from Chemicon; purchased Chemicon; host or cells: porcine erythrocyte
T1 sequence (P35750 1-714): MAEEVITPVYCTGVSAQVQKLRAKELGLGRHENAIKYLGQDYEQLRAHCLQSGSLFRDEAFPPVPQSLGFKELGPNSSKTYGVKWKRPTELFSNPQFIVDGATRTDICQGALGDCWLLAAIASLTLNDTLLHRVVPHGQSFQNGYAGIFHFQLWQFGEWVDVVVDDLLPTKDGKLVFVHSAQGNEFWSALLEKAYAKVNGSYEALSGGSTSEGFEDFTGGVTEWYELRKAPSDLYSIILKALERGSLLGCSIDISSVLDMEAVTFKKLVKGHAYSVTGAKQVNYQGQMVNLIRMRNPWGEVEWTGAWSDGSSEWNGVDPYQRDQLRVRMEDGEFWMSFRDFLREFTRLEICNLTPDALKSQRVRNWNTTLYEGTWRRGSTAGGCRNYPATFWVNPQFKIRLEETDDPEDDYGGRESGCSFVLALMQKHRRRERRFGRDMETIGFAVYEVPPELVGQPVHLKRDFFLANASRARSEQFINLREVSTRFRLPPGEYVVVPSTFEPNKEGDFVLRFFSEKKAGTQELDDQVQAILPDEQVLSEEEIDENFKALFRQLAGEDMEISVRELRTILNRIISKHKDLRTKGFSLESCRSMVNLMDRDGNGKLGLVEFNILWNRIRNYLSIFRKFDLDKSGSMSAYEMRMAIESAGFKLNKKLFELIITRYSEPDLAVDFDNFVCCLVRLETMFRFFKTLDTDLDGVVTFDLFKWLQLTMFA
T1 sequence (P04574 1-266 partner): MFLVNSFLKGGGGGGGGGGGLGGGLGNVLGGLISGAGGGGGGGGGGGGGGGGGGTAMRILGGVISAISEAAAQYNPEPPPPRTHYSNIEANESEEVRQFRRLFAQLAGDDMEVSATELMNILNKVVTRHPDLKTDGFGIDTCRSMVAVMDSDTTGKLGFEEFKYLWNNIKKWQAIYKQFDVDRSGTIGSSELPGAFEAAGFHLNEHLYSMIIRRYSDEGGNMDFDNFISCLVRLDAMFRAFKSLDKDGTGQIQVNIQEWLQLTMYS
From the text: Unless otherwise noted, the materials used in the studies described below were obtained from commercial suppliers. Sepharose 2B was obtained from Pharmacia Biotech (Upsala, Sweden); pure p-calpain (porcine erythrocyte) was obtained from Chemicon; succinyl-LLVY-AMC (SEQ ID NO:7) was obtained from Bachem; A23187 was obtained from LC Labs; human alpha-thrombin was obtained from Hematologic Technologies (Essex Junction, VT); anti-P-selectin antibodies conjugated to phycoerythrin were obtained from Becton Dickinson (San Jose, Calif.); Oregon Green-phalloidin was obtained from Molecular Probes (Eugene, Oreg.). All other chemicals were ACS grade or better and were obtained from Sigma Chemical Company (St. Louis, Mo.).
To assess the ability of calpastat to inhibit calpain activity, a fluorometric calpain assay was performed. The assay determined specific peptidyl hydrolysis of the peptidyl 7-amino bond of suc-LLVY-AMC (SEQ ID NO:7) by calpain.
The assay was performed in a 0.5 ml reaction volume at 37° C. The reaction buffer contained 50 mM KC1, 10 mM Tris-HCl (pH 7.5), 1 mM EDTA, and 1 mM DTT. Two hundred μM suc-LLVY-AMC (SEQ ID NO:7) was added along with 5 mM CaCl2. Calpastat or S-TIPPEY-ala was then added at the given concentrations (FIG. 9). […] The initial rate of AMC production was measured by fluorimetry for the first few minutes. […]

platelets [2] = assay: cells; format: cell-based; set-up: reduction in spreading on the glass surface: dose or concentration left out as unconfirmed
Description: Platelet activation on surfaces can be inhibited by […] or […] fusion proteins. […] The cellular area of spread platelets was determined by computer assisted image analysis using NIH Image 1.61. […] Percent inhibition of spreading was calculated from the increase in mean cell area for untreated and treated samples vs. unspread DMSO controls.

| Substance | pIC50 (platelets [1]) | P-selectin surface expression induced by ionophore A23187 (platelets [1]; A23187) | maximal inhibition of P-selectin surface expression (platelets [1]; FIG. 3, SFLLR) [µM] | increase in P-selectin surface expression over unstimulated (platelets [1]; SFLLR alone approximately 10-fold) [fold] | pIC50 (platelets [1]; read-out: half-maximal inhibition of P-selectin surface expression, FIG. 3, SFLLR) | pIC50 (μ-calpain; 70 nM enzyme, 37° C., read-out: IC50, μ-calpain cleavage of suc-LLVY-AMC) | pIC50 (platelets [2]) | inhibition of platelet spreading relative to calpastat-ala control (platelets [2]; 100 μM, 30 minutes pre-incubation) [%] | inhibition of platelet spreading relative to calpastat-ala control (platelets [2]; 100 μM, 60 minutes pre-incubation) [%] | platelets round and unspread on glass (platelets [2]; 100 μM, 1.5 hours) | inhibition of platelet spreading relative to calpastat-ala control (platelets [2]; 100 μM, 90 minutes pre-incubation) [%] | reduction in spreading on the glass surface (platelets [2]; 90 minutes at 37° C.) [%] | effect on SFLLR-induced P-selectin surface expression (platelets [1]; pre-incubation, SFLLR stimulation) | inhibition of purified μ-calpain (μ-calpain; up to 10 μM, listed as S-TIPPEY-ala) | effect on platelet spreading (platelets [2]; spreading on glass) | pIC50 (platelets [2]; spreading on glass, NI=no inhibition, read-out: IC50, inhibition of platelet spreading) |
| --- | --- | --- | --- | --- | --- | --- | --- | --- | --- | --- | --- | --- | --- | --- | --- | --- |
| H-AAVALLPAVLLALLAPEKLGERDDTIPPEYRELLEKKTGV-OH [Calpastat] | 4.52 | inhibited | 40 to 60 | 5 | 4.70 to 4.82 | 7.30 | 4.46 | 0 | 46 | Half | 80 | 70 | – | – | – | – |
| AAVALLPAVLLALLAPEKLAERADAAAPEAAELLEKKTGV [Calpastat-ala] | – | – | – | – | – | – | – | – | – | – | – | – | no effect | no inhibitory activity; also recorded: no inhibition | minimal inhibition | < 4.00 |
